PMC12192976, “Unique Structural Features Relate to Evolutionary Adaptation of Cytochrome P450 in the Abyssal Zone” (International Journal of Molecular Sciences, 2025)

What was measured:
C. armatus CYP51 [1] = molecular target: T1, C. armatus CYP51 (Coryphaenoides armatus, UniProt Z9AQN8BZD8); assay: Spectral titration of C. armatus CYP51 with sterol substrates (type I response); details: P450 2 µM; for Kd: read-out: Kd (apparent spectral dissociation constant, sterol substrate), titration step 0.25 µM; for Spin State Transition in the Heme Iron: sterol 0.25−3 µM, 22 °C
Protocol: Equal amounts of the HPCD solution were added to the reference cuvette to correct for the solvent-induced spectral perturbations, and the difference spectra were taken in the wavelength range of 350–500 nm. […] The apparent spectral dissociation constants (Kd) were calculated in GraphPad Prism software, as described, for human CYP51 [22].

C. armatus CYP51 [2] = molecular target: T1, C. armatus CYP51; assay: Reconstituted sterol 14α-demethylation, steady-state (Michaelis–Menten) kinetics; details: 0.25 µM P450, 1 µM CPR, 1 min reaction, 37 °C; for kcat: sterol 3.12−37.5 µM
Protocol: (§1) The samples were preincubated for 3 min at 37 °C in a shaking water bath, and the reaction was initiated by the addition of 100 μM NADPH and stopped by the extraction of sterols with ethyl acetate. The extracted sterols were dried, dissolved in 100 µL of methanol, and the products were analyzed by reversed-phase HPLC equipped with a β-RAM detector (INUS Systems) using a Nova-Pak 3.9 mm × 150 mm (4 μm) octadecylsilane (C18) HPLC column. The products were separated with an isocratic mobile phase composed of acetonitrile and methanol (4:1 (v/v)) at a flow rate of 0.75 mL/min [9]. Michaelis–Menten parameters were calculated using GraphPad Prism. The kcat and Km values for each reaction were determined by fitting the data to a Michaelis–Menten hyperbola, with the reaction rates (nmol product formed/nmol P450/min) being plotted versus total substrate concentration.

C. armatus CYP51 [3] = molecular target: T1, C. armatus CYP51; assay: Stabilization of C. armatus CYP51 by TMAO (CO-binding spectra after overnight storage)
Protocol: Absorption spectra (270–700 nm) were recorded at 22 °C using a dual-beam Shimadzu UV-2600i spectrophotometer and UVProbe2.71 software. The P450 concentration was determined from the Soret band absorbance in the absolute spectrum, with the extinction coefficient 117 mM^−1 cm^−1 for the low-spin ferric form or 91 mM^−1 cm^−1 for the reduced (ferrous) carbon monoxide (CO) complex in the difference spectra. The spin state of the P450 samples was estimated from the absolute spectra using the ratio (ΔA393–470/ΔA417–470), with values of 0.35 and 2.0 corresponding to 100% low- and 100% high-spin iron, respectively.
After data collection the crystals were dissolved in phosphate buffered saline (PBS, Gibco, Billings, MT, USA). UV-visible absolute absorption spectra (270–700 nm) were recorded at room temperature using a NanoVue,4282 single beam spectrophotometer (CE Healthcare, Cardiff, UK) (Figure S4A). CO-binding difference absorption spectra (400–500 nm) were recorded using a dual-beam Shimadzu UV-2600i spectrophotometer as follows. The CO gas was bubbled through the protein solution, which was then divided into two cuvettes serving as a blank and standard, respectively. The baseline was taken, and a few crystals of […] were added to the sample cuvette (Figure S4B). […]

C. armatus CYP51 [4] = molecular target: T1, C. armatus CYP51
Protocol: as §1

human CYP51 [5] = tested on: human CYP51; set-up: method as in PMID 27313059; details: cited from earlier work
human CYP51 [6] = molecular target: human CYP51; set-up: method as in PMID 27313059; details: read-out: apparent dissociation constant (Kd), azole ligand; cited from earlier work
C. armatus CYP51 [7] = molecular target: T1, C. armatus CYP51; assay: Spectral titration with azole-based ligands (type II response)
Protocol: Equal amounts of the HPCD solution were added to the reference cuvette to correct for the solvent-induced spectral perturbations, and the difference spectra were taken in the wavelength range of 350–500 nm. […] Titrations with azole-based compounds were carried out at 0.5 µM P450 concentration in 5 cm optical path length cuvettes. Aliquots of 0.1 mM compounds dissolved in dimethyl sulfoxide (DMSO) were added to the sample cuvette, with each titration step being 0.1 µM. At each step, the corresponding volume of DMSO was added to the reference cuvette. The apparent spectral dissociation constants (Kd) were calculated in GraphPad Prism software, as described, for human CYP51 [22].

C. armatus CYP51 [8] = molecular target: T1, C. armatus CYP51; assay: Inhibition of reconstituted lanosterol 14α-demethylation, 1 h reaction; details: enzyme/inhibitor/substrate 1:50:50, 60 min
Protocol: as §1

[9] = read-out: apparent dissociation constant (Kd), azole ligand, P450 0.5 µM, titration step 0.1 µM

T1 sequence (Z9AQN8BZD8 6-449 limits assumed): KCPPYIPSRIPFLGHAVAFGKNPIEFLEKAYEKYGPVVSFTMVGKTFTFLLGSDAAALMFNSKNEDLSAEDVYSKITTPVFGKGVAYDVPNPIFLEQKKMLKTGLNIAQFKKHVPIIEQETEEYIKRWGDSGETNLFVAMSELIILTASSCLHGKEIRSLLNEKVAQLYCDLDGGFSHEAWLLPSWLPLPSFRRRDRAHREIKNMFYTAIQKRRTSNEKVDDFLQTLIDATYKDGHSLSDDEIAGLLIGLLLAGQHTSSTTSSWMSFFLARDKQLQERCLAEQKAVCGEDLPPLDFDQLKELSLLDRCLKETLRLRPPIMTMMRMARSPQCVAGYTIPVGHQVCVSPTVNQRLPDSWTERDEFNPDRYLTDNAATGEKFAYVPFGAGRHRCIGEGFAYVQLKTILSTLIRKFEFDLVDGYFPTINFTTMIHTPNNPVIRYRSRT

With `C=C(CC[C@@H](C)C1CC[C@@]2(C)C3=C(CC[C@]12C)[C@@]1(C)CC[C@H](O)C(C)(C)C1CC3)C(C)C` (stereo partly shown) the Kd (C. armatus CYP51 [1]) was 1.02 ± 0.04 µM, the “Spin State Transition in the Heme Iron” value (C. armatus CYP51 [1]) was 27% and the Km (C. armatus CYP51 [2]) was 13 ± 0.9 µM. For the same molecule, the kcat (C. armatus CYP51 [2]) was 1.03 ± 0.0383 s⁻¹.
In the case of `CC(C)=CCC[C@@H](C)[C@H]1CC[C@@]2(C)C3=C(CC[C@]12C)[C@@]1(C)CC[C@H](O)C(C)(C)[C@@H]1CC3` [Lanosterol], the Kd (C. armatus CYP51 [1]) is reported as 0.77 ± 0.04 µM, the “Spin State Transition in the Heme Iron” value (C. armatus CYP51 [1]) is reported as 22% and the Km (C. armatus CYP51 [2]) is reported as 8.1 ± 1.1 µM. For the same molecule, the kcat (C. armatus CYP51 [2]) was 0.797 ± 0.0317 s⁻¹.
In the case of `C=C(CC[C@@H](C)[C@H]1CC[C@@]2(C)C3=C(CC[C@]12C)[C@@]1(C)CC[C@H](O)[C@@H](C)[C@@H]1CC3)C(C)C` [Obtusifoliol, obtusifoliol], the Kd (C. armatus CYP51 [1]) is reported as 0.56 ± 0.03 µM, the “Spin State Transition in the Heme Iron” value (C. armatus CYP51 [1]) is reported as 13% and the Km (C. armatus CYP51 [2]) is reported as 7.9 ± 0.6 µM. The kcat (C. armatus CYP51 [2]) was 0.865 ± 0.03 s⁻¹.
For `C[N+](C)(C)[O-]` [TMAO, Trimethylamine oxide], the “spectral response in the C. armatus CYP51 heme iron (in words)” value (C. armatus CYP51 [3]) was “does not cause any spectral response” and the “P450 recovery after overnight incubation (CO-binding spectra)” value (C. armatus CYP51 [3]; 10 mM TMAO, overnight storage at 4 °C in PBS) was 90%.
For `O=C(N[C@@H](Cn1ccnc1)c1ccc(-c2ccc(F)cc2)cc1F)c1ccc(-c2nnc(-c3ccccc3)o2)cc1` [VFV, (R)-N-(1-(3,4′-difluorobiphenyl-4-yl)-2-(1H-imidazol-1-yl)ethyl)-4-(5-phenyl-1,3,4-oxadiazol-2-yl)benzamide], the “inhibition of CYP51 activity” value (C. armatus CYP51 [4]) is given as 93%, the “inhibition of CYP51 activity” value (human CYP51 [5]; human CYP51, enzyme/inhibitor/substrate 1:50:50, 60 min) is given as 64% and the Kd (human CYP51 [6]) is given as 0.09 µM. The Kd (C. armatus CYP51 [7]) was 0.02 µM.
With `N#Cc1ccc(COc2ccc(C#Cc3ccc(C(F)(F)[C@](O)(Cn4cnnn4)c4ccc(F)cc4F)nc3)cc2)cc1` [VT-1598] the “inhibitory effect on the C. armatus CYP51 activity (in words)” value (shortened to “inhibitory effect”) (C. armatus CYP51 [8]) was “did not have any inhibitory effect”.
With `C[C@@H](c1nc(-c2ccc(C#N)cc2)cs1)[C@](O)(Cn1cncn1)c1cc(F)ccc1F` [isavuconazole] the “inhibitory effect” value (C. armatus CYP51 [8]) was “did not have any inhibitory effect”.
For `CCC(C)n1ncn(-c2ccc(N3CCN(c4ccc(OCC5COC(Cn6cncn6)(c6ccc(Cl)cc6Cl)O5)cc4)CC3)cc2)c1=O` (stereo not shown) [itraconazole], the Kd (human CYP51 [6]) is listed as 1.29 µM, the Kd (C. armatus CYP51 [7]; [9]) is listed as 0.62 µM and the “inhibitory effect” value (C. armatus CYP51 [8]) is listed as “did not have any inhibitory effect”.
In the case of `CC(=O)N1CCN(c2ccc(OCC3COC(Cn4ccnc4)(c4ccc(Cl)cc4Cl)O3)cc2)CC1` (stereo not shown) [ketoconazole], the “lanosterol converted in presence of inhibitor” value (human CYP51 [5]; human CYP51, 50-fold molar excess of inhibitor, 1 h reaction) is given as 100%, the Kd (human CYP51 [6]) is given as 0.07 µM and the Kd (C. armatus CYP51 [7]; [9]) is given as 0.01 µM.
With `O[C@@](Cn1cnnn1)(c1ccc(F)cc1F)C(F)(F)c1ccc(-c2ccc(OCC(F)(F)F)cc2)cn1` [oteseconazole] the “inhibitory effect” value (C. armatus CYP51 [8]) was “did not have any inhibitory effect”.
In the case of `CC[C@@H]([C@H](C)O)n1ncn(-c2ccc(N3CCN(c4ccc(OC[C@@H]5CO[C@@](Cn6cncn6)(c6ccc(F)cc6F)C5)cc4)CC3)cc2)c1=O` [posaconazole], the “inhibitory effect” value (C. armatus CYP51 [8]) is reported as “did not have any inhibitory effect”.
In the case of `C[C@@H](c1ncncc1F)[C@](O)(Cn1cncn1)c1ccc(F)cc1F` [voriconazole], the Kd (human CYP51 [6]) is given as 2.53 µM, the Kd (C. armatus CYP51 [7]; [9]) is given as 0.61 µM and the “inhibitory effect” value (C. armatus CYP51 [8]) is given as “did not have any inhibitory effect”.
